Data on three molecules can be found in article PMC10905675, “INX-315, a Selective CDK2 Inhibitor, Induces Cell Cycle Arrest and Senescence in Solid Tumors” (Cancer Discovery, 2023).

One assay deals with ST4316B PDX. The experiment in a line: PDX tumor growth. Type of assay: in vivo, mice. The note with it: monotherapy; ribociclib 50 mg/kg per day. As for the experimental part:
(§1) PDX models were performed by Crown Biosciences (OV5398, GA0103, and GA0114) or XenoSTART (ST4316B). Tumor fragments from stock mice were harvested and implanted subcutaneously into the flank of NOD/SCID mice (OV5398, RRID:IMSR_JAX:001303), BALB/c nude mice (GA0103 and GA0114, RRID:IMSR_RJ:BALB-C-NUDE), or athymic nude mice (Crl:NU(NCr)-Foxn1nu, RRID:IMSR_CRL:490) (ST4316B). For CDX models, female athymic nude mice (Crl:NU(NCr)-Foxn1nu, RRID:IMSR_CRL:490) were inoculated with 1 × 10^7 50% Cultrex OVCAR3 cells in the flank. Experiments performed using MMTV-rtTA/tetO-HER2 mice were performed at the Peter MacCallum Cancer Centre. Tumor formation was induced and sustained in female mice with doxycycline as previously described ([33]). Randomization and treatment in all models began when median tumor volume reached a maximum of 300 mm^3.
Mice were treated via oral gavage. INX-315 was prepared weekly in 100% PEG400; abemaciclib was prepared as previously described ([33]) and ribociclib (Selleckchem, S7440) was prepared weekly in 0.5% methyl cellulose. To generate abemaciclib-resistant MMTV-rtTA/tetO-HER2 tumors, mice were treated continuously with abemaciclib at a dose of 75 mg/kg until tumors resumed growth as described in text. At this point and in all other MMTV-rtTA/tetO-HER2 mice experiments, mice were randomized into treatment groups and abemaciclib was administered to indicated groups at a dose of 50 mg/kg. In all MMTV-rtTA/tetO-HER2 mice experiments, INX-315 was administered at a dose of 50 mg/kg twice daily. For PDX model ST4316B, ribociclib was administered at 50 mg/kg per day.

The subject of assay [1] is five cell lines with CCNE1 amplification (ovarian cancer). The experiment in a line: CellTiter Glo viability assay. Type of assay: cell-based. The settings on record: six days.
Another assay has as its system Hs68. Nature of the assay: CellTiter Glo viability assay. Type of assay: cell-based. The settings on record: benign human fibroblast cell line Hs68. As for the experimental part:
(§2) An exception to this is MCF7PDRCl5-1 cells which were first cultured for 5 days without palbociclib then plated as described. MCF7PDRCl5-1 cells were treated with either a dose curve of the indicated CDK4/6i or a dose curve of INX-315 + 1 µmol/L of the indicated CDK4/6i. Cell viability was determined using the CellTiter-Glo assay (Promega, G9241) following manufacturer's instructions. Plates were processed on either BioTek Synergy2 multi-mode (Agilent) or ClarioSTAR (BMG Labtech) plate readers. T47D and MCF7 cells were seeded into […] plates using BioTek 406 (Aglient) and treated with a ten-point dose concentration from 10 µmol/L to 0.3 nmol/L of INX-315 for 2× doubling times. Plates were fixed with 4% PFA and stained with Rhodamine-Phalloidin (Bio-Trend, 00027) and DAPI (5 mg/mL, Invitrogen, catalog no. D1306). Plates were imaged using CellInsight CX7 LZR and DAPI-positive cells were counted using Thermo Fisher Scientific HCS Studio Cell Analysis Software.
Background: In ATP-based viability assays light output follows the ATP content of the culture.

Another assay relates to MKN1. Nature of the assay: CellTiter Glo viability assay. Type of assay: cell-based. The note with it: 6 days. As for the experimental part:
as §2

Assay [2] deals with palbociclib-resistant MCF7 cells. The experiment in a line: CellTiter Glo viability assay. Type of assay: cell-based. The settings on record: Homo sapiens, MCF7, Supp Fig S9B, CDK4/6 inhibitor monotherapy; read-out: IC50. As for the experimental part: as §2
Assay [3] has as its system parental MCF7 and T47D cells. The experiment in a line: Cell cycle flow cytometry. The assay is classed as cell-based. The settings on record: abemaciclib 500 nmol/L, 7 days. As for the experimental part: One hour prior to endpoint, either 10 µmol/L BrdU or EdU was applied to the cells. Cells were stained using the Near-IR Fixable Viability Stain (Invitrogen, L34976) for 20 minutes at room temperature. Cells were fixed and permeabilized using FoxP3/Transcription Factor Staining Buffer Set (eBioscience, 00–5523–00; for BrdU-treated cells) or Click-iT fixative (for EdU-treated cells). DNA was denatured using 2N HCl + 0.5% (v/v) Triton X-100 for 30 minutes. […] Cells were then stained with BrdU antibody (clone 3D4, BioLegend, 364118, RRID:AB_2814318) for 1 hour. The EdU Click-iT reaction was performed using a Click-iT EdU Flow Cytometry Assay Kit (Invitrogen, C10418 or C10425). Prior to acquisition on the BD A3 Symphony or FACSCelesta, DNA was stained using FxCycle Violet ReadyFlow Reagent (BrdU) or FxCycle Far Red nucleic acid stain (Invitrogen, F10348) in combination with Rnase (Sigma R4642) (for EdU-treated cells). A minimum of 10,000 live cell events were recorded for each sample and data was analyzed using Flow Jo (Tree Star, RRID:SCR_008520).
In general terms: A flow cytometer gives signals particle by particle.

Assay [4] has as its system MMTV-rtTA/tetO-HER2 tumors. The experiment in a line: Transgenic mammary tumor growth. The assay is classed as in vivo, mice. As for the experimental part:
as §1
Mice were treated via oral gavage. INX-315 was prepared weekly in 100% PEG400; abemaciclib was prepared as previously described ([33]) and ribociclib (Selleckchem, S7440) was prepared weekly in 0.5% methyl cellulose. To generate abemaciclib-resistant MMTV-rtTA/tetO-HER2 tumors, mice were treated continuously with abemaciclib at a dose of 75 mg/kg until tumors resumed growth as described in text. […]

Turning to `CN(C)C(=O)c1cc2cnc(Nc3ccc(N4CCNCC4)cn3)nc2n1C1CCCC1` [ribociclib, reference compound], the tumor growth entry with ST4316B PDX is given as “slowed tumor growth modestly”.
By IC50 is commonly meant the concentration that inhibits the measured activity by half. For `CC(=O)c1c(C)c2cnc(Nc3ccc(N4CCNCC4)cn3)nc2n(C2CCCC2)c1=O` [palbociclib, reference compound], the “sensitivity of CCNE1-amplified lines” value in assay [1] is given as “not sensitive”. Further, the values for the IC50 (in the assay with Hs68; in assay [2]) were 26 nM and above 10 µM, respectively. In addition, in the assay with MKN1, the “sensitivity of MKN1” value is recorded as “insensitive”.
For the molecule `CCN1CCN(Cc2ccc(Nc3ncc(F)c(-c4cc(F)c5nc(C)n(C(C)C)c5c4)n3)nc2)CC1` [abemaciclib], the IC50 in assay [2] was found to be 5.71 µM. In assay [3], the “cells in S-phase” value is listed as below 1%. In addition, the “tumors with tumor regression (>25% reduction in tumor volume)” value in assay [4] (abemaciclib monotherapy, 163 of 183 tumors) is recorded as 89%. The “regressing tumors that had resumed growth (acquired resistance)” value in assay [4] (by day 35 of abemaciclib treatment, 142 of 163) was found to be 87%.
